{"source": "patent US20240368209A1", "about": "“GEMCITABINE ANTICANCER DERIVATIVE AND ANTICANCER PHARMACEUTICAL USE” (ASCENTAWITS PHARMACEUTICALS, LTD., priority 2021, published 2024)", "key": {"[1]": {"test_system": "H460 cancer cells", "assay": "Inhibition of H460 cancer cells in the presence or absence of AKR1C3 inhibitor AST-3021 (section 2.1)", "assay_type": "cell-based, human", "conditions": "AST-3021 3 μM, read-out: IC50 (nmol/L) AST-3021 added", "procedure": "The experimental scheme was as follows: • 1) H460 cell suspension was added to a 96-well plate with 100 μL per well at a cell density of 2000/well. • 2) Cells were incubated in an incubator of 37° C., 5% CO2 overnight. • 3) Compound treatment\nCombined administration: 24 hours after cell plating, 98 μL of growth medium per well was added. 1 μL of AST-3021 was added to each well (final concentration 3 μM), and the plate was shaken gently to ensure even mixing, and then placed into an incubator; after 2 hours, 1 μL of the test compound at different concentrations was added, and the plate was shaken gently to ensure even mixing, and then placed into an incubator of 37° C., 5% CO2.\nAdministration of the drug alone: 24 hours after cell plating, 99 μL of growth medium per well was added.\nIn order to further verify that the compound was activated specifically by human AKR1C3 (aldosterone reductase family 1 member C3), the compound was added following the pretreatment of cells with the specific AKR1C3 enzyme inhibitor AST-3021 (3 μM), and the effect of the presence of AST-3021 on the proliferation of H460 cancer cells was tested\nIC50 data of inhibitory effect of the compounds gemcitabine and H11 on H460 cancer cells in the presence or absence of the AKR1C3 inhibitor AST-3021 is shown in Table 2 and Table 3."}, "[2]": {"assay": "Metabolic stability in monkey liver microsomes", "assay_type": "in vitro ADME", "procedure": "(§1) Main solutions were prepared according to Table 9 below:\n(§2) (II) Two Separate Experiments were Performed • a) With cofactor (NADPH): 25 μL of 10 mM NADPH was added to the culture broth. The final concentration of liver microsomes was 0.5 mg/mL, and the final concentration of NADPH was 1 mM. • b) Without cofactor (NADPH): 25 μL of 100 mM phosphate buffer was added. The final concentration of liver microsomes was 0.5 mg/mL. The mixture was preheated at 37° C. for 10 minutes. (III) 25 μL of […] control compound or test compound solution was added to start the reaction. […] The final concentrations of the test compound and control compound were both 1 μM. The culture broth was cultured in water at 37° C. (IV) Aliquots of 30 μL were collected from the reaction solution at 0.5, 5, 15, 30, and 60 minutes, respectively. 5 volumes of cold acetonitrile and IS (internal standard, containing 100 nM of alprazolam, 200 nM of caffeine, and 100 nM of tolylbutanamide) were added to stop the reaction. […] 100 μL of supernatant was taken and mixed with 100 μL of ultrapure water, equally divided and analyzed with LC-MS/MS.\n(§3) All calculations were conducted using Microsoft Excel. The peak area was determined from the extracted ion chromatogram.\n(§4) [formula] [formula] [formula] • wherein, QH is the hepatic blood flow (mL/min/kg) in Table 10, and fub is the fraction of drug unbound in plasma, and assumed as 1."}, "[3]": {"assay": "Metabolic stability in dog liver microsomes", "assay_type": "in vitro ADME", "procedure": "as §1, §2, §3, §4"}, "[4]": {"assay": "Plasma stability in dog plasma", "assay_type": "in vitro ADME", "procedure": "The final concentration of organic solvents was 0.5%. The test was conducted in duplicate. • C.\nSamples were analyzed with LC-MS/MS. All calculations were conducted using Microsoft Excel."}, "[5]": {"assay": "Plasma stability in rat plasma", "conditions": "rat, plasma", "procedure": "1 mM working solution of the test compound was prepared in DMSO. 1 mM working solution of propantheline was prepared in acetonitrile. 1 mM working solution of lovastatin (mevinolin) was prepared in DMSO. Propantheline was used as a positive control for human, monkey, dog, and mouse plasma stability tests. Lovastatin was a positive control for rat plasma stability test.\n• A. 398 μL of plasma per well was added to the culture plate, and the plate was preheated at 37° C. for 15 minutes. • B. After preincubation, 2 μL of working solution (test solution or control solution) was added to the 398 μL plasma mentioned above, resulting in a final concentration of 5 μM. The final concentration of organic solvents was 0.5%. The test was conducted in duplicate. • C. The reaction sample was incubated at 37° C. • D. 50 μL was extracted from the reaction sample at 0, 15, 30, 60, and 120 minutes, respectively. […] 100 μL of supernatant was taken and transferred to a new plate. The supernatant was diluted with ultrapure water according to the LC-MS signal response and peak shape.\nSamples were analyzed with LC-MS/MS. All calculations were conducted using Microsoft Excel. The peak area ratio was determined from the extracted ion chromatogram. • (1) The percentage of the remaining compound at each time point was calculated with the following formula: […]\nwherein the slope value k was determined by linear regression of the natural logarithm of the remaining percentage of the parent drug vs. incubation time curve."}}, "note": "Values joined by “and” are separate entries in the source; they are usually repeats but may differ in a detail not shown here. Equal values may be shown once. Read-outs that look alike come from different tables or passages of the source."}
{"smiles": "CC(C)NP(=O)(OCc1ccc([N+](=O)[O-])c(Oc2ccc(-c3ccc(F)cc3)c(F)c2)c1)OCC1OC(C2N=CC(N)=NC2=O)C(F)(F)C1O", "note": "(centres unmarked) [Compound H11]", "values": [{"measurement": "IC50", "setting": "[1]; H460", "value": "1470 nmol/L and 2350 nmol/L"}, {"measurement": "IC50", "setting": "[1]; Homo sapiens, NCI-H460, H460", "value": 2940, "unit": "nmol/L"}, {"measurement": "Hepatic Extraction Ratio (ER)", "setting": "[2]", "value": 0.88}, {"measurement": "Predicted Hepatic CLH", "setting": "[2]", "value": 38.81, "unit": "mL/min/kg"}, {"measurement": "clearance and stability in liver microsomes (in words)", "setting": "[2]", "value": "high clearance and poor stability"}, {"measurement": "Remaining percentage (%)", "setting": "[2]; NADPH added, 0.5 minutes, 1 μM", "value": 100.00, "unit": "%"}, {"measurement": "Remaining percentage (%)", "setting": "[2]; NADPH added, 5 minutes", "value": 46.01, "unit": "%"}, {"measurement": "Remaining percentage (%)", "setting": "[2]; NADPH added, 15 minutes", "value": 13.27, "unit": "%"}, {"measurement": "Remaining percentage (%)", "setting": "[2]; NADPH added, 30 minutes", "value": 0.59, "unit": "%"}, {"measurement": "Remaining percentage (%)", "setting": "[2]; NADPH added, 60 minutes", "value": 0.09, "unit": "%"}, {"measurement": "Remaining percentage (%)", "setting": "[2]; NADPH not added, 0.5 minutes", "value": 100.00, "unit": "%"}, {"measurement": "Remaining percentage (%)", "setting": "[2]; NADPH not added, 60 minutes", "value": 105.87, "unit": "%"}, {"measurement": "half-life at 1 μM", "setting": "[2]; monkey, read-out: In vitro half-life t1/2", "value": 5.06, "unit": "min"}, {"measurement": "microsomal CLint at 1 μM", "setting": "[2]; monkey, read-out: In vitro intrinsic clearance CLint", "value": 275, "unit": "µL/min/mg"}, {"measurement": "CLint scaled at 1 μM", "setting": "[2]; monkey, read-out: Scale-up CLint", "value": 330, "unit": "mL/min/kg"}, {"measurement": "Hepatic Extraction Ratio (ER)", "setting": "[3]", "value": 0.68}, {"measurement": "Predicted Hepatic CLH", "setting": "[3]", "value": 21.21, "unit": "mL/min/kg"}, {"measurement": "clearance and stability in liver microsomes (in words)", "setting": "[3]", "value": "medium clearances and certain stability"}, {"measurement": "Remaining percentage (%)", "setting": "[3]; NADPH added, 0.5 minutes, 1 μM", "value": 100.00, "unit": "%"}, {"measurement": "Remaining percentage (%)", "setting": "[3]; NADPH added, 5 minutes", "value": 90.20, "unit": "%"}, {"measurement": "Remaining percentage (%)", "setting": "[3]; NADPH added, 15 minutes", "value": 71.99, "unit": "%"}, {"measurement": "Remaining percentage (%)", "setting": "[3]; NADPH added, 30 minutes", "value": 52.53, "unit": "%"}, {"measurement": "Remaining percentage (%)", "setting": "[3]; NADPH added, 60 minutes", "value": 32.12, "unit": "%"}, {"measurement": "Remaining percentage (%)", "setting": "[3]; NADPH not added, 0.5 minutes", "value": 100.00, "unit": "%"}, {"measurement": "Remaining percentage (%)", "setting": "[3]; NADPH not added, 60 minutes", "value": 92.14, "unit": "%"}, {"measurement": "half-life at 1 μM", "setting": "[3]; dog, read-out: In vitro half-life t1/2", "value": 36.3, "unit": "min"}, {"measurement": "microsomal CLint at 1 μM", "setting": "[3]; dog, read-out: In vitro intrinsic clearance CLint", "value": 38.2, "unit": "µL/min/mg"}, {"measurement": "CLint scaled at 1 μM", "setting": "[3]; read-out: Scale-up CLint", "value": 67.2, "unit": "mL/min/kg"}, {"measurement": "t1/2 (min)", "setting": "[4]", "value": "∞"}, {"measurement": "Remaining percentage (%)", "setting": "[4]; 0 min, 5 μM, 37° C.", "value": 100.00, "unit": "%"}, {"measurement": "plasma stability (in words)", "setting": "[4]; 37° C., at least 2 hours", "value": "stable and has no significant metabolism"}, {"measurement": "Remaining percentage (%)", "setting": "[4]; 15 min", "value": 104.14, "unit": "%"}, {"measurement": "Remaining percentage (%)", "setting": "[4]; 30 min", "value": 103.37, "unit": "%"}, {"measurement": "Remaining percentage (%)", "setting": "[4]; 60 min", "value": 102.42, "unit": "%"}, {"measurement": "Remaining percentage (%)", "setting": "[4]; 120 min", "value": 103.04, "unit": "%"}, {"measurement": "t1/2 (min)", "setting": "[5]", "value": "∞"}, {"measurement": "Remaining percentage (%)", "setting": "[5]; 0 h, 5 μM", "value": 100.00, "unit": "%"}, {"measurement": "Remaining percentage (%)", "setting": "[5]; 0.25 h, 5 µM", "value": 108.59, "unit": "%"}, {"measurement": "Remaining percentage (%)", "setting": "[5]; 0.5 h, 5 µM", "value": 105.39, "unit": "%"}, {"measurement": "Remaining percentage (%)", "setting": "[5]; 1 h, 5 µM", "value": 100.74, "unit": "%"}, {"measurement": "Remaining percentage (%)", "setting": "[5]; 2 h, 5 µM", "value": 109.53, "unit": "%"}]}
